In patent US12410124B2 (priority 2019, dated 2025):

Key:
Type in all cases: in vivo
midbrain p-α-s = assay: Midbrain p-α-s protein expression in MPTP Parkinson's disease model mouse (western-blotting); conditions: midbrain total protein, GAPDH internal reference, gavage 21 consecutive days after MPTP modeling
Experimental: (§1) Neurotoxins can be used to establish PD animal models. Currently, 1-methyl-4-phenyl-1,2,3,6-tetrahydropyridine (MPTP) is the sole synthetic toxin which is recognized to induce PD symptoms in human and non-human primates and in mice. Using MPTP subacute modeling method, C57BL/6J male mice were intraperitoneally injected with MPTP 30 mg/kg, once a day for 5 consecutive days. The experiment animals were divided into blank control group, MPTP model group, and compound treatment group. For the […] compound treatment group, the compound was administrated by gavage for 21 consecutive days after the completion of modeling; for the MPTP model group, the normal saline was administrated by gavage for 21 consecutive days after the completion of modeling; and for the blank control group, the normal saline was first intraperitoneally injected for 5 days, and then administrated by gavage for 21 days.
Alpha-synuclein is an “unfolded protein” in its natural state. It exists in a monomeric form, and participates in the physiological functions such as the release of neurotransmitters, the establishment of synaptic junctions, and the regulation of synaptic plasticity. Under pathological conditions, more than 90% of alpha-synuclein is phosphorylated at serine of position 129 and converted into phosphorylated alpha-synuclein (p-α-s), thereby forming Lewy bodies. The formation of Lewy bodies is one of the main pathological manifestations and pathological mechanisms for Parkinson's disease, and plays an important role in the formation and development of PD. The detection of the p-α-s expression in the midbrain and substantia nigra of PD model mice can evaluate the neuroprotective activity of the compound.
Half of experiment mice in each group were taken to extract the total midbrain protein, and the change in the midbrain P-α-s protein expression was determined by western-blotting using GAPDH as the internal reference. The experiment included blank control group, MPTP model group, positive control group (caffeic acid phenethyl ester, CAPE), prototype control group (styryl sulfone compounds 3B, 3C, 3D, and 3G, whose structures are shown as above), and target compound group.

substantia nigra GFAP = assay: Number of substantia nigra astrocytes with GFAP positive expression in MPTP Parkinson's disease model mouse (immunohistochemistry); conditions: substantia nigra, MPTP Parkinson's disease model mouse, immunohistochemistry
Experimental: as §1
Neuron-glial cell network homeostasis disorder is an important factor for the selective and progressive death of substantia nigra dopaminergic neurons in PD. In the neurotoxic effect of MPTP, the excessive activations of microglial cells and astrocytes produce a variety of inflammatory cytokines and reactive oxygen species (ROS). These inflammatory factors and ROS amplify their respective toxicities and mediate malignant feedback loop, causing a cascade inflammation response and aggravating the pathological process of PD. CD11b and GFAP are the marker proteins for activations of microglial cells and astrocytes, respectively. Therefore, the effect of the target compounds on the activations of the microglial cells and astrocytes in the substantia nigra, hippocampus, and midbrain areas of MPTP-induced PD mice can be investigated, to explore the mechanism of the anti-PD effect of the target compounds by inhibiting the neuroinflammation.
Half of experiment mice in each group were taken to separate the midbrain after perfusion and fixation. The tissue was trimmed, and the substantia nigra area was taken to prepare paraffin sections. The GFAP immunohistochemical staining was performed for the statistics of the change in the number of astrocytes with GFAP positive expression. The experiment included blank control group, MPTP model group, positive control group (caffeic acid phenethyl ester, CAPE), prototype control group (styryl sulfone compounds 3B, 3C, 3D, and 3G, whose structures are shown as above), and target compound group.

HO-1 = assay: Midbrain HO-1 expression in MPTP Parkinson's disease model mouse (western blot); conditions: midbrain, MPTP Parkinson's disease model mouse, western blot
Experimental: as §1
(§2) Oxidative stress is an important pathogenic mechanism of PD. Dopaminergic neurons are more sensitive to oxidative stress and are more susceptible to oxidative stress damage. Heme oxygenase (HO-1), a phase II enzyme, is also a well-known antioxidase. It plays an important protective role by catalyzing the conversion of free radicals into non-toxic products and increasing their water solubility to facilitate the elimination of free radicals, and maintain the redox balance in the body. It plays an important role in the process of protecting cells against oxidative stress damage. The activation of p38 protein phosphorylation has a negative regulatory effect on phase II enzymes. […] Using HO-1 as an indicator, the inhibitory effect of the target compounds on MPTP-induced oxidative stress damage in PD mice can be investigated.
(§3) HO-1 is expressed in astrocytes, microglial cells, and neurons. The total proteins of the midbrain tissue of mice in each experiment group were extracted, to determine the expression of phase II enzyme HO-1 in the midbrain of mice by western blot using GAPDH as the internal reference. The experiment included blank control group, MPTP model group, positive control group (caffeic acid phenethyl ester, CAPE), prototype control group (styryl sulfone compounds 3B, 3C, 3D, and 3G, whose structures are shown as above), and target compound group.

GCLC = assay: Midbrain GCLC expression in MPTP Parkinson's disease model mouse (western blot); conditions: midbrain, MPTP Parkinson's disease model mouse, western blot
Experimental: as §1
as §2, with “Glutathione (GSH) is an important antioxidant substance in the cell, and glutamate cysteine ligase (GCL) is the rate-limiting enzyme for GSH synthesis, which is composed of catalytic subunit (GCLC) and regulatory subunit (GCLM). The increase of GCLC expression can promote the synthesis of GSH and enhance the ability of tissue cells against oxidative stress. GCL,” for “Heme oxygenase (HO-1),”, “enzyme,” for “enzyme, is also a well-known antioxidase. It”, “GCLC” for “HO-1”
as §3, with “GCLC” for “HO-1”, “3D),” for “3D,”

Row | SMILES | Expression (p-α-s/GAPDH) (midbrain p-α-s) | Positive cell number (astrocytes with GFAP positive expression) (substantia nigra GFAP) | Expression (HO-1/GAPDH) (HO-1) | Expression (GCLC/GAPDH) (GCLC)
1 | O=S(=O)(/C=C/c1ccc(O)c(O)c1)CCCc1ccccc1 [Compound 3C, (E)-4-{2-[(3-phenylpropyl)sulfonyl]ethenyl}benzene-1,2-diol, reference compound] | 0.92 ± 0.13 | 121 ± 13 | 0.44 ± 0.05 | 0.34 ± 0.05
2 | O=S(=O)(/C=C/c1ccc(O)c(O)c1)Cc1ccc(Cl)cc1 [Compound 3D, (E)-4-{2-[(4-chlorophenyl)mesyl]ethenyl}benzene-1,2-diol, reference compound] | 0.49 ± 0.12 | 110 ± 9 | 1.03 ± 0.20 | 0.53 ± 0.04
3 | CCOC(CS(=O)(=O)/C=C/c1ccc(OC(C)=O)c(OC(=O)Nc2ccc(NC)cc2)c1)C(OCC)c1ccc(OCc2ccccc2)c(O)c1 (stereo not drawn) [Compound H2-4, (E)-4-{2-[3-(4-benzyloxy-3-hydroxyphenyl)-2,3-diethoxypropyl]sulfonylethenyl}-2-[N-(4-methylaminophenyl)carbamoyloxy]phenyl acetate] | 0.53 ± 0.13 | 93 ± 6 | 0.95 ± 0.10 | 1.21 ± 0.08
